The nature of data set [1]: Clinical study: safety, side effects, taste, psychedelic effects (Bowdle, Bond and Lader questionnaires).
Data set [2] in a line: Clinical study: plasma concentrations and pharmacokinetics after (S)-ketamine OTF. The note with it: for Tmax: calculated using a PK model (NONMEM); for plasma level of the metabolite following administration of an OTF as compared to intravenous administration of 20 mg (S)-ketamine: FIGS. 3-8.

With `CNC1(c2ccccc2Cl)CCCCC1=O` (racemic) [(S)-ketamine, (S)-(±)-2-(2-chlorophenyl)-2-(methylamino)cyclohexan-1-one], in data set [1] (20 mg (S)-ketamine IV), the “Dizziness (number of adverse events)” value is on record as 4, the “Drowsiness (number of adverse events)” value is 3, the “Dry eyes (number of adverse events)” value turned out to be 1 and the “Headache (number of adverse events)” value is reported as 3. Also, in data set [1] (20 mg (S)-ketamine IV), the “High blood pressure (SBP > 180 mm Hg) (number of adverse events)” value was 2, the “Nausea (number of adverse events)” value amounted to 2, the “Sweating (number of adverse events)” value is 1 and the “Total (number of adverse events)” value came to 17. Moreover, the “Whistling noise in the ear (number of adverse events)” value in data set [1] (20 mg (S)-ketamine IV) is listed as 1. Besides, in data set [1] (50 mg (S)-ketamine as OTF), the “Blurred vision (number of adverse events)” value came out at 1, the “Bradykinesia (number of adverse events)” value is recorded as 1, the “Dizziness (number of adverse events)” value is 1 and the “Feeling of drunkenness (number of adverse events)” value stood at 2. In data set [1] (50 mg (S)-ketamine as OTF), the “Headache (number of adverse events)” value came to 1, the “Nausea (number of adverse events)” value turned out to be 1 and the “Total (number of adverse events)” value came to 7. In data set [1] (100 mg (S)-ketamine as OTF), the “Bradykinesia (number of adverse events)” value turned out to be 1, the “Dizziness (number of adverse events)” value is on record as 3, the “Headache (number of adverse events)” value is listed as 2 and the “Nausea (number of adverse events)” value came to 1. Besides, in data set [1] (100 mg (S)-ketamine as OTF), the “Numbness of the tongue (number of adverse events)” value was determined as 2 and the “Total (number of adverse events)” value worked out at 9.

The term Tmax denotes the time at which the peak concentration occurs. With `N[C@]1(c2ccccc2Cl)CCC[C@H](O)C1=O` [(S)-Hydroxynorketamine], the time of peak concentration (Tmax) in data set [2] (50 mg (S)-Ketamine OTF) is 1.35 h; in data set [2] (100 mg (S)-Ketamine OTF), 1.82 h. The Cmax plasma concentration in data set [2] (All data, 50 mg (S)-ketamine OTF (formulation 15)) stood at 94 ng/mL; in data set [2] (Buccally, 50 mg (S)-ketamine OTF, n=5), 81 ng/mL; in data set [2] (Sublingually, 50 mg (S)-ketamine OTF, n=15), 98 ng/mL. In addition, in data set [2], the “plasma level of the metabolite following administration of an OTF as compared to intravenous administration of 20 mg (S)-ketamine” value is recorded as “higher”.

As to `N[C@]1(c2ccccc2Cl)CCCCC1=O` [(S)-Norketamine], the Tmax in data set [2] (50 mg (S)-Ketamine OTF) was 1.02 h; in data set [2] (100 mg (S)-Ketamine OTF), 1.3 h. For the same molecule, the Cmax plasma concentration in data set [2] (All data, 2 × 50 mg (S)-ketamine OTF (formulation 15)) came out at 330 ng/mL; in data set [2] (Buccally, 2 × 50 mg (S)-ketamine OTF, n=5), 450 ng/mL. Also, the “plasma level of the metabolite following administration of an OTF as compared to intravenous administration of 20 mg (S)-ketamine” value in data set [2] was “higher”.

For `CNC1(c2ccccc2Cl)CCCCC1=O` (stereo not shown) [ketamine], the “plasma levels of ketamine, intravenous administration versus administration of an OTF” value in data set [2] (FIGS. 9-11) is “higher for intravenous administration”.
